# Assay results from patent US20080096950A1, “Compounds Useful In Therapy” (priority 2006, published 2008).
# Molecular target: T1, Progesterone receptor (PR) (Homo sapiens, UniProt P06401)
# T1 construct: endogenous in cells; host or cells: T47D human breast mammary carcinoma cells
# T1 sequence (P06401 1-933): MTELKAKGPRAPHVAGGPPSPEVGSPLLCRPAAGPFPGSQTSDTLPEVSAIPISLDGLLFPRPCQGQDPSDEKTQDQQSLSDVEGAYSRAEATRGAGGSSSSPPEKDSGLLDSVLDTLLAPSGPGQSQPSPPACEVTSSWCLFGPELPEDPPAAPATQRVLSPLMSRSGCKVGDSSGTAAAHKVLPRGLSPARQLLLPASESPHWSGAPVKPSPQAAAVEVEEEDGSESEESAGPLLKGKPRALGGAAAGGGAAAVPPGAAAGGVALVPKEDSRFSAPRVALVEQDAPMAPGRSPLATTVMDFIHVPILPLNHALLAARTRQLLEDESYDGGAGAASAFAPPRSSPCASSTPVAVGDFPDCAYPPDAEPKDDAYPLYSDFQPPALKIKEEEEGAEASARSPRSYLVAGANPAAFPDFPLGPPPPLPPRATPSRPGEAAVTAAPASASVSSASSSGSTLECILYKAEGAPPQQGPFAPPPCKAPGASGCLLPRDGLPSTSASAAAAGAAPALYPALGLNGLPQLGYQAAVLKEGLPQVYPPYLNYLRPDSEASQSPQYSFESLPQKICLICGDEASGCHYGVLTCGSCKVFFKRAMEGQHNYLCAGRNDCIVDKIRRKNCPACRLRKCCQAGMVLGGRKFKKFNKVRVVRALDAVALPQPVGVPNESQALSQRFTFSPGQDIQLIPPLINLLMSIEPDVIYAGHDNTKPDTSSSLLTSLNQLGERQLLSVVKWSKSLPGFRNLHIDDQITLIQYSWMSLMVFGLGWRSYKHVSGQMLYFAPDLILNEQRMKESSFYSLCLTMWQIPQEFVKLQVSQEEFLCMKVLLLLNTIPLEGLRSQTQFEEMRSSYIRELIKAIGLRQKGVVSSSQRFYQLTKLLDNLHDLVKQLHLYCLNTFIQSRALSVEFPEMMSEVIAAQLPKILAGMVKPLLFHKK
# Test: In vitro functional assay for progesterone receptor (PR) antagonists: inhibition of progesterone-induced alkaline phosphatase expression in T47D cells
# Assay type: cell-based
# Details: antagonist format; T47D human mammary carcinoma cells; alkaline phosphatase inhibition vs 5 nM progesterone
# Excerpt: 1.0 In Vitro Functional Assay for Progesterone Receptor (PR) Antagonists, Agonists and Modulators
# The assay for PR antagonism takes advantage of the extensively reported modulation of alkaline phosphatase (AP) expression in human breast T47D mammary carcinoma cells {Beck, et al., D. P. (1993). The progesterone antagonist RU486 acquires agonist activity upon stimulation of cAMP signalling pathways. Proc Natl Acad Sci U S A 90, 4441-4445; Fensome, et al. (2002). New progesterone receptor antagonists: 3,3-disubstituted-5-aryloxindoles. Bioorg. Med. Chem. Lett., 12, 3487-3490; Zhang et al., (2002a). 6-Aryl-1,4-dihydro-benzo d 1,3 oxazin-2-ones: a novel class of potent, selective, and orally active nonsteroidal progesterone receptor antagonists. J. Med. Chem., 45, 4379-4382; Zhang et al., (2003). Novel 6-aryl-1,4-dihydrobenzo d oxazine-2-thiones as potent, selective, and orally active nonsteroidal progesterone receptor agonists. Bioorg. Med. Chem. Lett., 13, 1313-1316; Zhang et al., (2002b). Potent nonsteroidal progesterone receptor agonists: synthesis and SAR study of 6-aryl benzoxazines. Bioorg. Med. Chem. Lett., 12, 787-790; Zhang, Z. et al., (2000). In vitro characterization of trimegestone: a new potent and selective progestin. Steroids 65, 637-643.}. […] In the absence of progesterone any agonist activity is also observed as an induction of AP activity. By running the assay in two formats (± progesterone (P4)), compounds behaving as PR antagonists, agonists, partial agonists or modulators with mixed agonist/antagonist activity can be identified.
# Briefly, T47D cells are grown by propagating in DMEM with phenol red+10% FCS+2 mM Glutamine at 37° C./5% CO2. At 70-80% confluence, the media is exchanged for phenol red free DMEM+5% CS-FCS (Assay media). Cells are incubated overnight in assay media then harvested and frozen in assay media containing 10% DMSO at 1.5e7 cells/mL in 2 mL aliquots using a Planer and immediately stored in liquid nitrogen. V1als are removed from liquid nitrogen storage and immediately thawed in a water bath at 37° C. The cell suspension is added dropwise to 20 mL of assay media, then the tube centrifuged at 1000 rpm for 4 minutes, the supernatant is discarded and the pellet re-suspended in 20 mL assay media. T47D cells are then plated at 8750 cells/well in 35 μL assay media in sufficient white solid 384 well TC plates for the assay. For the agonist format assay a further 10 μL of assay media is added to each well. These plates are then cultured for 3-6 hours at 37° C./5% CO2 before compound addition.
# Compounds are prepared by in 100% DMSO, half log concentrations from 4 mM in 384 well plates 5 μL/well (referred to here as ‘grandmother plates’). Progesterone is 100 μM made up in ethanol and PBS (i.e. add 1 mL ethanol to progesterone initially to help dissolving) and stored in 0.5-1 mL aliquots at −20° C.
# Using a multidrop (Thermolabsystems), 60 μL/well of buffer is added to a 384 well plate—this will be the ‘mother plate’. Add 45 μLwell buffer to grandmother plate using the multidrop (=400 μM 10% DMSO dilution). Mixed and spun to remove air bubbles.
# 20 μL is taken from the grandmother plate (400 μM 10% DMSO) and added to the mother plate (=100 μM 2.5% DMSO). Mixed and spun to remove air bubbles
# The PlateMate Plus was used to add 5 μL MAX/MIN to cell plates
# Then 5 μL compounds are added from the mother plate(after removing max/min Platemate tips: columns 1 and 24)
# 25 nM progesterone in assay media is prepared from 100 μM stock (12.5 μL progesterone/50 mL media), from which 10 μL per well is transferred to the assay plate using the Platemate Plus (already containing cells & compound).
# The cell plates are incubated @ 37° C., 5% CO2 overnight (at least 16 hours). […]
row,Compound,IC50 [nM]
1,"Cc1cc(Oc2c(C3CC3)nn(C3CCS(=O)(=O)C3)c2C2CC2)cc(C)c1C#N (racemic) [Example 7, rac-4-[3,5-Dicyclopropyl-1-(1,1-dioxo-tetrahydro-1λ^6-thiophen-3-yl)-1H-pyrazol-4-yloxy]-2,6-dimethyl-benzonitrile]",13.8
2,"Cc1cc(Oc2c(C)nn(C3CCS(=O)(=O)C3)c2C2CCC2)cc(C)c1C#N (racemic) [Example 12, rac-4-[5-Cyclobutyl-1-(1,1-dioxo-tetrahydro-1λ^6-thiophen-3-yl)-3-methyl-1H-pyrazol-4-yloxy]-2,6-dimethyl-benzonitrile]",1490
3,"Cc1cc(Oc2c(C3CCC3)nn(C3CCS(=O)(=O)C3)c2C)cc(C)c1C#N (racemic) [Example 13, rac-4-[3-Cyclobutyl-1-(1,1-dioxo-tetrahydro-1λ^6-thiophen-3-yl)-5-methyl-1H-pyrazol-4-yloxy]-2,6-dimethyl-benzonitrile]",202
4,"Cc1cc(Oc2c(C)nn(C3CCS(=O)(=O)C3)c2C2CC2)cc(C)c1C#N (racemic) [Example 14, rac-4-[5-Cyclopropyl-1-(1,1-dioxo-tetrahydro-1λ^6-thiophen-3-yl)-3-methyl-1H-pyrazol-4-yloxy]-2,6-dimethyl-benzonitrile]",133
5,"Cc1cc(Oc2c(C3CC3)nn(C3CCS(=O)(=O)C3)c2C2CC2)cc(C)c1C#N (single isomer, unassigned) [Example 8, 4-[3,5-Dicyclopropyl-1-(1,1-dioxo-tetrahydro-1λ^6-thiophen-3-yl)-1H-pyrazol-4-yloxy]-2,6-dimethyl-benzonitrile]",33.8
6,"Cc1cc(Oc2c(C3CC3)nn(C3CCS(=O)(=O)C3)c2C2CC2)cc(C)c1C#N (single isomer, unassigned) [Example 9, 4-[3,5-Dicyclopropyl-1-(1,1-dioxo-tetrahydro-1λ^6*-thiophen-3-yl)-1H-pyrazol-4-yloxy]-2,6-dimethyl-benzonitrile]",25.9
7,"Cc1cc(Oc2c(C3CC3)nn(C3COC3)c2C2CC2)cc(C)c1C#N [Example 1, 4-(3,5-Dicyclopropyl-1-oxetan-3-yl-1H-pyrazol-4-yloxy)-2,6-dimethyl-benzonitrile]",82.6
8,"Cc1cc(Oc2c(C3CC3)nn(C3CS(=O)(=O)C3)c2C2CC2)cc(C)c1C#N [Example 2, 4-[3,5-Dicyclopropyl-1-(1,1-dioxo-thietan-3-yl)-1H-pyrazol-4-yloxy]-2,6-dimethyl-benzonitrile]",14.7
9,"Cc1cc(Oc2c(C3CC3)nn(C3CCOC3)c2C2CC2)cc(C)c1C#N (stereo not drawn) [Example 3, 4-[3,5-Dicyclopropyl-1-(tetrahydro-furan-3-yl)-1 H-pyrazol-4-yloxy]-2,6-dimethyl-benzonitrile]",67.4
10,"Cc1cc(Oc2c(C3CC3)nn(C3CCS(=O)(=O)CC3)c2C2CC2)cc(C)c1C#N [Example 5, 4-[3,5-Dicyclopropyl-1-(1,1-dioxo-hexahydro-1 λ^6-thiopyran-4-yl)-1H-pyrazol-4-yloxy]-2,6-dimethyl-benzonitrile]",91.3
11,"Cc1cc(Oc2c(C3CC3)nn(C3CCOCC3)c2C2CC2)cc(C)c1C#N [Example 6, 4-[3,5-Dicyclopropyl-1-(tetrahydro-pyran-4-yl)-1H-pyrazol-4-yloxy]-2,6-dimethyl-benzonitrile]",56.3
12,"Cc1cc(Oc2c(C3CC3)nn(C3CS(=O)(=O)C3)c2C)cc(C)c1C#N [Example 10, 4-(3-Cyclopropyl-5-methyl-1-(1,1-dioxo-thietan-3-yl)-1H-pyrazol-4-yloxy)-2,6-dimethyl-benzonitrile]",27.6
13,"Cc1cc(Oc2c(C)nn(C3CS(=O)(=O)C3)c2C2CC2)cc(C)c1C#N [Example 11, 4-(3-Methyl-5-cyclopropyl-1-(1,1-dioxo-thietan-3-yl)-1H-pyrazol-4-yloxy)-2,6-dimethyl-benzonitrile]",50.4
14,"Cc1cc(Oc2c(C3CC3)nn(C3CS(=O)(=O)C3)c2Cl)cc(C)c1C#N [Example 20, 4-[5-Chloro-3-cyclopropyl-1-(1,1-dioxo-1λ^6-thietan-3-yl)-1H-pyrazol-4-yloxy]-2,6-dimethyl-benzonitrile]",22
15,"Cc1cc(Oc2c(Cl)nn(C3CS(=O)(=O)C3)c2C2CC2)cc(C)c1C#N [Example 21, 4-[3-Chloro-5-cyclopropyl-1-(1,1-dioxo-1λ^6-thietan-3-yl)-1H-pyrazol-4-yloxy]-2,6-dimethyl-benzonitrile]",108
